Where “and” joins values, the source holds several entries; their conditions need not be identical. Equal entries are not always repeated. Where two headings read alike, the source gives them in different places.
How the values were obtained:
[1] = target: T1, canine TRPM8 (Canis lupus familiaris, UniProt Q1A7N1); assay: In vitro canine TRPM8 functional assay (Ca2+-sensitive dye, FLIPR/FDSS, icilin activation); format: cell-based; details: HEK293 cells expressing canine TRPM8, icilin activation; for % I (0.5 μM): 0.5 μM compound; for IC50: eight-point dose-response; for inhibition at 0.5 µM: HEK293, read-out: % I (0.5 μM), 0.5 μM compound; for % I (1 μM): 1 μM compound; for % I (5 μM): 5 μM compound
T1 construct: expressed in transfected cells
T1 sequence (Q1A7N1 1-1104): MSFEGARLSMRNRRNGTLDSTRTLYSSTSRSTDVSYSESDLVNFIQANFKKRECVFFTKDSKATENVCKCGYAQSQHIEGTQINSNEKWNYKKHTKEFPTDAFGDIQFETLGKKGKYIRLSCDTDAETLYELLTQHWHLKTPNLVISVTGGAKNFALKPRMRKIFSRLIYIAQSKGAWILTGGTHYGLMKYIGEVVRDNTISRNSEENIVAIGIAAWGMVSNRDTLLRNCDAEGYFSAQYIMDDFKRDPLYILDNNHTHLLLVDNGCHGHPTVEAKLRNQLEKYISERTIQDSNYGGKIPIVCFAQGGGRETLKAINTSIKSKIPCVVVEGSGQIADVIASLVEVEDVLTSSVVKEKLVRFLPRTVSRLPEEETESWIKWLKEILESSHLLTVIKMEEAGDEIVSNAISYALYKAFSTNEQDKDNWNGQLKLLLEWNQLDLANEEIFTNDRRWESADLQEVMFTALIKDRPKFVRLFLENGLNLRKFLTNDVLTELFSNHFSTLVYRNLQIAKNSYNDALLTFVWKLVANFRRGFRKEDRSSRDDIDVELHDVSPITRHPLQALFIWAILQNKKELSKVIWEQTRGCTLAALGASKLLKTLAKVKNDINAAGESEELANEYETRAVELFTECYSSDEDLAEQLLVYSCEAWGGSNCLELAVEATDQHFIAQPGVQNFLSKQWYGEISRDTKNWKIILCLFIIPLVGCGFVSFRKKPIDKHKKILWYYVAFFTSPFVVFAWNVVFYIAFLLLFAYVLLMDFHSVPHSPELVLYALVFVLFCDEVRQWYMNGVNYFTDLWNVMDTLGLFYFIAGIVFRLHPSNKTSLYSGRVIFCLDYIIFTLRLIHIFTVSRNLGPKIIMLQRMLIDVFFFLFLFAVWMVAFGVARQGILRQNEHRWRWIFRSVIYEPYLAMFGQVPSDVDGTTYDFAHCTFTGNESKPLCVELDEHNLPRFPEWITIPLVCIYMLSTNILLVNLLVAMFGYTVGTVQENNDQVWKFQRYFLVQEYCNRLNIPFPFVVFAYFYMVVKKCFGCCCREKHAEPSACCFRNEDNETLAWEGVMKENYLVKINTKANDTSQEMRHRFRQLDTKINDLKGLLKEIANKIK
Summary of the method: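 Icilin challenge (final concentration producing ~80% of maximal response) followed a 5 min compound exposure in canine TRPM8-HEK293 cells dye-loaded with Calcium 3. Intracellular Ca2+ was read on FLIPR/FDSS. EC50 and IC50 values came from nonlinear sigmoidal dose-response fits of basal-subtracted, percent-of-maximum data averaged over quadruplicates.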

[2] = system: Sprague-Dawley rats; assay: CFA-induced paw radiant heat hypersensitivity; format: in vivo, rat; details: for % Reversal: rat, 30 mg/kg p.o.; for inhibition in vivo at 30 mg/kg / ED50: Rattus norvegicus; for inhibition in vivo at 30 mg/kg: read-out: % Reversal
Description: Intraplantar injection of Complete Freund's Adjuvant (CFA) in rodents results in a long-lasting inflammatory reaction, characterized by a pronounced hypersensitivity to both thermal and mechanical stimuli. This hypersensitivity peaks between 24-72 hours following injection and can last for several weeks. […] This paradigm also may be conducted with a multiple dosing or a prophylactic dosing regime designed to alter the course of hyperalgesia development. This test predicts the analgesic, anti-allodynic and antihyperalgesic effect of numerous effective clinical agents, including NSAIDS such as acetaminophen, aspirin and ibuprofen, and opioids such as morphine.
Each rat was placed in a test chamber on a warm glass surface and allowed to acclimate for approximately 10 minutes. A radiant thermal stimulus (beam of light) was then focused through the glass onto the plantar surface of each hind paw in turn. The thermal stimulus was automatically shut off by a photoelectric relay when the paw was moved or when the cut-off time was reached (20 seconds for radiant heat at ˜5 Amps). An initial (baseline) response latency to the thermal stimulus was recorded for each animal prior to the injection of CFA. Twenty-four hours following intraplantar CFA injection, the response latency of the animal to the thermal stimulus was then re-evaluated and compared to the animal's baseline response time. […] Immediately following the post-CFA latency assessment, test compound or vehicle (usually Solutol, hydroxypropyl methylcellulose, hydroxypropyl beta-cyclodextrin or PEG-400) was administered i.p. or p.o. to rats. […] The percent reversal (% R) of hypersenstivitiy was calculated according to the following formula:
% Reversal=(Treatment Response-CFA Response)/(Baseline Response-CFA Response)×100.

[3] = HEK293, read-out: % I (1 μM), 1 μM compound

| Compound | % I (0.5 μM) [1] | IC50 ([1]; read-out: IC50) | other results |
| --- | --- | --- | --- |
| CC(C)OP(=O)(OC(C)C)C(Cc1ccc(Cl)c(F)c1)c1sc2ccccc2c1Br (stereo not drawn) [Cpd 190] | 104% | 0.102 µM | % Reversal ([2]; time 1 h): 45% |
| CCOP(=O)(OCC)C(Cc1cccc(Cl)c1)c1sc2ccccc2c1Br (stereo not drawn) [Cpd 137, [1-(3-Bromo-benzo[b]thiophene-2-yl)2-(3-chloro-phenyl)-ethyl]-phosphonic acid diethyl ester] | – | – | inhibition at 0.5 µM [1]: 102%; IC50 ([1]; IC50 (μM)): 0.024 µM; inhibition in vivo at 30 mg/kg ([2]; po, 1 h): 34% |
| CCOP(=O)(OCC)C(Cc1ccc(F)c(F)c1)c1sc2ccccc2c1Br (stereo not drawn) [Cpd 127, [1-(3-Bromo-benzo[b]thiophen-2-yl)-2-(3,4-difluoro-phenyl)-ethyl]-phosphonic acid dethyl ester] | – | – | inhibition at 1 µM [1, 3]: 100%; IC50 ([1]; IC50 (μM)): 0.052 µM; ED50 ([2]; po): 5.2 mg/kg; inhibition in vivo at 30 mg/kg ([2]; po, 1 h): 88%; ED50 ([2]; po, 1 h, read-out: oral ED50): 5.2 mg/kg |
| CC(C)OP(=O)(OC(C)C)C(Cc1cc(C(F)(F)F)ccc1F)c1sc2ccccc2c1Br (stereo not drawn) [Cpd 335] | 102% | 0.035 µM | % Reversal ([2]; time 1 h): 0% |
| CCOP(=O)(OCC)C(Cc1ccc(SC)cc1)c1sc2ccccc2c1Cl (racemic) [Cpd 299] | 101% | 0.141 µM | % Reversal ([2]; time 1 h): 23% |
| CC(C)OP(=O)(OC(C)C)C(Cc1ccc(C(F)(F)F)cc1)c1sc2ccccc2c1Br (stereo not drawn) [Cpd 336] | 102% | 0.043 µM | % Reversal ([2]; time 1 h): 64% |
| CCOP(=O)(OCC)C(Cc1ccc(F)c(C(F)(F)F)c1)c1sc2ccccc2c1Cl (racemic) [Cpd 298] | 99% | 0.085 µM | % Reversal ([2]; time 1 h): 20% |
| CC(C)OP(=O)(OC(C)C)C(Cc1ccc(F)cc1)c1sc2ccccc2c1Br (stereo not drawn) [Cpd 197] | 102% | – | % I (1 μM) [1]: 100%; % Reversal ([2]; time 2 h (printed 2 h or 2)): 23% |
| CC(C)OP(=O)(OC(C)C)C(Cc1ccc(F)c(F)c1)c1sc2ccccc2c1Cl (stereo not drawn) [Cpd 12, [1-(3-Chloro-benzo[b]thiophen-2-yl)-2-(3,4-difluoro-phenyl)-ethyl]-phosphonic acid diisopropyl ester] | – | – | inhibition at 1 µM [1, 3]: 100%; IC50 ([1]; IC50 (μM)): 0.043 µM and 0.13 µM; inhibition in vivo at 30 mg/kg ([2]; ip, 1 h): 105% |
| CCOP(=O)(OCC)C(Cc1cc(C(F)(F)F)ccc1F)c1sc2ccccc2c1Cl (racemic) [Cpd 286] | 102% | 0.127 µM | – |
| Cc1c(C(Cc2ccc(F)c(F)c2)P(=O)(OC(C)C)OC(C)C)oc2cccc(F)c12 (stereo not drawn) [Cpd 202] | – | 0.053 µM | % I (1 μM) [1]: 103% |
| CCOP(=O)(OCC)C(Cc1ccccc1F)c1csc2ccccc12 (stereo not drawn) [Cpd 86] | – | 0.5 µM | % I (5 μM) [1]: 101% |
| CC(C)CCOP(=O)(OCCC(C)C)C(Cc1ccc(F)c(F)c1)c1sc2ccccc2c1Br (racemic) [Cpd 211] | 97% | 0.095 µM | – |
| CCOP(=O)(OCC)C(Cc1ccc(Cl)c(Cl)c1)c1cc2ccccc2s1 (stereo not drawn) [Cpd 78, [1-Benzo[b]thiophen-2-yl-2-(3,4-dichloro-phenyl)-ethyl]-phosphonic acid diethyl ester] | – | – | inhibition at 1 µM [1, 3]: 95%; IC50 ([1]; IC50 (μM)): 0.43 µM |
| CCOP(=O)(OCC)C(Cc1ccc(F)c(OC)c1)c1sc2ccccc2c1Br (stereo not drawn) [Cpd 156] | – | – | inhibition at 0.5 µM [1]: 103%; IC50 ([1]; IC50 (μM)): 0.015 µM and 0.032 µM |
| CCOP(=O)(OCC)C(Cc1cccc(OC(F)(F)F)c1)c1sc2ccccc2c1Cl (stereo not drawn) [Cpd 270] | 102% | 0.202 µM | – |
| CC(C)OP(=O)(OC(C)C)C(Cc1ccc(F)c(F)c1)c1cc2ccccc2o1 (stereo not drawn) [Cpd 120] | – | 0.39 µM | % I (1 μM) [1]: 102% |
| CC(C)OP(=O)(OC(C)C)C(Cc1cccc(C(F)(F)F)c1)c1sc2ccccc2c1Cl (racemic) [Cpd 170] | 103% | 0.073 µM | – |
| CCOP(=O)(OCC)C(Cc1ccccc1Cl)c1sc2ccccc2c1Br (racemic) [Cpd 147] | 103% | 0.125 µM | – |
| Cc1c(C(Cc2ccc(F)c(F)c2)P(=O)(OC(C)C)OC(C)C)oc2ccccc12 (stereo not drawn) [Cpd 11] | – | 0.043 µM and 0.047 µM | % I (1 μM) [1]: 99% and 103% |
| CCC(C)P(=O)(C(C)CC)C(Cc1ccc(F)c(F)c1)c1oc2ccccc2c1Br (stereo not drawn) [Cpd 123] | – | 0.28 µM | % I (1 μM) [1]: 103% |

| Compound | % I (0.5 μM) [1] | IC50 ([1]; read-out: IC50) | other results |
| --- | --- | --- | --- |
| CCOP(=O)(OCC)C(Cc1ccc(Cl)c(F)c1)c1sc2ccccc2c1Br (stereo not drawn) [Cpd 258] | 102% | 0.045 µM | – |
| Cc1c(C(Cc2ccc(F)c(F)c2)P(=O)(OC(C)C)OC(C)C)sc2ccc(Cl)cc12 (stereo not drawn) [Cpd 92, [1-(5-Chloro-3-methyl-benzo[b]thiophen-2-yl)-2-(3,4-difluoro-phenyl)-ethyl]-phosphonic acid diisopropyl ester] | – | 0.58 µM | inhibition at 1 µM ([1]; HEK293, 1 μM compound, read-out: % I (1 μM)): 91% |
| CCOP(=O)(OCC)C(Cc1ccc(SC(F)(F)F)cc1)c1sc2ccccc2c1Cl (racemic) [Cpd 283] | 103% | 0.125 µM | – |
| COc1c(F)c(F)c(CC(c2sc3ccccc3c2Br)P(=O)(OC(C)C)OC(C)C)c(F)c1F (racemic) [Cpd 161] | 103% | 0.019 µM | – |
| CCOP(=O)(OCC)C(Cc1ccc(F)c(Cl)c1)c1sc2ccccc2c1Br (racemic) [Cpd 244] | 103% | 0.028 µM | % Reversal ([2]; time 2 h (printed 2 h or 2)): 45% |
| CC(C)OP(=O)(OC(C)C)C(Cc1cc(Cl)ccc1F)c1sc2ccccc2c1Br (racemic) [Cpd 308] | 103% | 0.017 µM | – |
| CCOP(=O)(OCC)C(Cc1cccc(F)c1F)c1sc2ccccc2c1C (stereo not drawn) [Cpd 10] | – | 0.043 µM | % I (1 μM) [1]: 100% |
| CCOP(=O)(OCC)C(Cc1ccc(Br)cc1)c1cc2ccccc2s1 (stereo not drawn) [Cpd 70] | – | 0.35 µM | % I (1 μM) [1]: 82%; % I (5 μM) [1]: 99% |
| COc1ccc(CC(c2sc3ccccc3c2Br)P(=O)(OC(C)C)OC(C)C)cc1C(F)(F)F (stereo not drawn) [Cpd 326] | 103% and 102% | 0.086 µM and 0.051 µM | – |
| CC(C)OP(=O)(OC(C)C)C(Cc1ccc(F)c(C(F)(F)F)c1)c1cc2ccccc2s1 (stereo not drawn) [Cpd 125] | – | 0.39 µM | % I (1 μM) [1]: 103% |
| CC(C)OP(=O)(OC(C)C)C(Cc1cccc(C(F)(F)F)c1F)c1sc2ccccc2c1Cl (racemic) [Cpd 168] | 104% | 0.076 µM | – |
| CCOP(=O)(OCC)C(Cc1ccc(F)c(F)c1)c1sc2ccccc2c1-c1cccc(C(=O)OC)c1 (racemic) [Cpd 219] | 68% | – | – |
| CCOP(=O)(OCC)C(Cc1cc(F)cc(F)c1Cl)c1sc2ccccc2c1C (stereo not drawn) [Cpd 28] | – | 0.11 µM | % I (1 μM) [1]: 100% |
| CCOP(=O)(OCC)C(Cc1cc(F)cc(C(F)(F)F)c1)c1sc2ccccc2c1C (stereo not drawn) [Cpd 56] | – | 0.24 µM | % I (1 μM) [1]: 103% |
| CCOP(=O)(OCC)C(Cc1cc(C(F)(F)F)ccc1Cl)c1sc2ccccc2c1Cl (stereo not drawn) [Cpd 274] | 95% | 0.301 µM | – |
| CCOP(=O)(OCC)C(Cc1ccc(S(=O)(=O)C(F)(F)F)cc1)c1sc2ccccc2c1Br (stereo not drawn) [Cpd 262] | 103% | 0.066 µM | – |
| CCCS(=O)(=O)n1c(C(Cc2ccc(F)c(C(F)(F)F)c2)P(=O)(OC(C)C)OC(C)C)c(Br)c2ccccc21 (stereo not drawn) [Cpd 332] | 72% | – | – |
| CC(C)OP(=O)(OC(C)C)C(Cc1ccccc1)c1sc2ccccc2c1Cl (stereo not drawn) [Cpd 179] | 103% | 0.068 µM | – |
| CCOP(=O)(OCC)C(Cc1cccc(C(F)(F)F)c1Cl)c1sc2ccccc2c1Br (racemic) [Cpd 151] | 103% | 0.12 µM | – |
| CC(C)OP(=O)(OC(C)C)C(Cc1cc(C(F)(F)F)ccc1F)c1sc2ccccc2c1Cl (racemic) [Cpd 172] | 104% | 0.105 µM | – |
